Molecular target: T1, Human Recombinant Matriptase 2 (Homo sapiens, UniProt Q8IU80)
T1 construct: purchased Enzo Life Sciences (an in-house preparation was also used) ALX-201-752-1
T1 sequence (Q8IU80 1-811): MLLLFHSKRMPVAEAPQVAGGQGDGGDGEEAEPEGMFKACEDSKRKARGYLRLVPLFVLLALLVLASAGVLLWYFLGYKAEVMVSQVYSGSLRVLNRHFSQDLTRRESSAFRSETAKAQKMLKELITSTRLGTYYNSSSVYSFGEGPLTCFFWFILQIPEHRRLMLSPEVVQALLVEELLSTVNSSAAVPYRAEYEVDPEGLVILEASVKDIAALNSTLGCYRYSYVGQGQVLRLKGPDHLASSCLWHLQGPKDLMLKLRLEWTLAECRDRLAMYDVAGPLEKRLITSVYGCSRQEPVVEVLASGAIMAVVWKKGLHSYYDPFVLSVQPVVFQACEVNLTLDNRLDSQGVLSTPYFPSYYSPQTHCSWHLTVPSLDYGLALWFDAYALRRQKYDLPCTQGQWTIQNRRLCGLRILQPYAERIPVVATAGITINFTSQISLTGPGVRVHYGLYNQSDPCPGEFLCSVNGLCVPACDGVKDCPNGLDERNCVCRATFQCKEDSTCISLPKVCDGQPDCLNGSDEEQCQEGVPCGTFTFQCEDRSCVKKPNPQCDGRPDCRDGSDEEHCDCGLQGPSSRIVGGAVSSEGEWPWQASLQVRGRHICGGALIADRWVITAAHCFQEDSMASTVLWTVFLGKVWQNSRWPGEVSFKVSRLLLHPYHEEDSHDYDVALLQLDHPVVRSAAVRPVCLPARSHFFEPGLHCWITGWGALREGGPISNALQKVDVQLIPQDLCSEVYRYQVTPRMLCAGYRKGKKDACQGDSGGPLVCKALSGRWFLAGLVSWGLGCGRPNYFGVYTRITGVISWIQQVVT
Assay: Matriptase 2 fluorescence based inhibition assay, Method B (50 mM TRIS pH 7.5, 150 mM NaCl, 0.01% gelatin)
Type: biochemical
Settings: 1 uM compound; Assay Used = B
Procedure, shortened: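 Commercial (7 nM) or in-house (15 nM) enzyme preincubated 30 min with compound at 25° C, then 100 μM Boc-Gln-Ala-Arg-AMC added; fluorescence (Ex 360/Em 480 nm) read at 60 min. 1% DMSO final. IC50 from variable-slope sigmoidal fit of % inhibition.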

Row | Mar-2 % inhibition at 1 uM | SMILES
1 | D (D represents 75%≤I≤100%) | N=C(N)c1ccc2cc(C(=O)NCC3(CN)CCCCC3)n(Cc3cccc4ccccc34)c2c1 [Compound I-474]

Same assay, conditions: 1 uM compound; Assay Used = B (Method B); read-out: Mar-2 % inhibition at 1 uM

Row | inhibition at 1 µM | SMILES
2 | 75 to 100% | N=C(N)c1ccc2cc(C(=O)O)n(Cc3cc(OS(=O)(=O)c4ccccc4)cc4ccccc34)c2c1 [Compound I-621]
3 | 50 to 75% | N=C(N)c1ccc2cc(C(=O)O)n(Cc3cc(Oc4ccncn4)cc4ccccc34)c2c1 [Compound I-618]
4 | 0 to 25% | N=C(N)Nc1ccc2cc(C(=O)N[C@H]3CC[C@H](N)CC3)n(Cc3cccc4ccccc34)c2c1 [Compound I-620, N-((1r,4r)-4-aminocyclohexyl)-6-guanidino-1-(naphthalen-1-ylmethyl)-1H-indole-2-carboxamide]
5 | 50 to 75% | COC(=O)NCCOC(=O)c1cc2ccc(C(=N)N)cc2n1Cc1cccc2ccccc12 [Compound I-602]
6 | 25 to 50% | N=C(N)c1ccc2cc(C(=O)O)n(Cc3cc(Oc4ccccc4Cl)cc4ccccc34)c2c1 [Compound I-661]
7 | 75 to 100% | N=C(N)c1ccc2cc(C(=O)N[C@H]3CC[C@H](N)CC3)n(Cc3cccc4cc(Oc5ccccc5)ccc34)c2c1 [Compound I-707]
8 | 75 to 100% | N=C(N)c1ccc2cc(C(=O)NCC3(CN)CCCCC3)n(Cc3cccc4ccccc34)c2c1 [Compound I-604]
9 | 0 to 25% | CO/N=C(\N)c1ccc2cc(C(=O)OC)n(Cc3cccc4ccccc34)c2c1 [Compound I-718, methyl (E)-6-(N′-methoxycarbamimidoyl)-1-(naphthalen-1-ylmethyl)-1H-indole-2-carboxylate]

Same assay, conditions: 1 uM compound; Assay Used = B; read-out: Mar-2 % inhibition at 1 uM

Row | inhibition at 1 µM | SMILES
10 | 0 to 25% | CN1CCC(NC(=O)c2cc3ccc(C(N)=O)cc3n2Cc2cccc3ccccc23)CC1 [Compound I-457]
11 | 50 to 75% | N=C(N)c1ccc2cc(C(=O)N3CCCNCC3)n(Cc3cccc4ccccc34)c2c1 [Compound I-442]
12 | 25 to 50% | CC(C)COC(=O)NC(=N)c1ccc2cc(C(=O)O)n(Cc3cc(Oc4ncccn4)cc4ccccc34)c2c1 [Compound I-595]
13 | 0 to 25% | CC(C)COC(=O)NC(=N)c1ccc2cc(C(=O)NC3CCN(C)CC3)n(Cc3cc(Oc4ncccn4)cc4ccccc34)c2c1 [Compound I-557]
14 | 0 to 25% | CN1CCN(C(=O)c2cc3ccc(C(=N)N)cc3n2Cc2cccc3ccccc23)CC1 [Compound I-443]
15 | 0 to 25% | CN1CCN(C(=O)c2cc3ccc(C(=N)NC(=O)OC(C)(C)C)cc3n2Cc2cccc3ccccc23)CC1 [Compound I-425]
16 | 50 to 75% | N=C(N)c1ccc2cc(C(=O)NC3CCOCC3)n(Cc3cccc4ccccc34)c2c1 [Compound I-463]
17 | 75 to 100% | N=C(N)c1ccc2cc(C(=O)O)n(Cc3cc(NS(=O)(=O)c4ccccc4)cc4ccccc34)c2c1 [Compound I-567, 6-carbamimidoyl-1-((3-(phenylsulfonamido)naphthalen-1-yl)methyl)-1H-indole-2-carboxylic Acid]

Same assay, conditions: compound at 1 uM; Assay Used: B; read-out: Mar-2 % inhibition at 1 uM

Row | inhibition at 1 µM | SMILES
18 | 50 to 75% | N=C(N)c1ccc2cc(C(=O)N[C@H]3CC[C@H](N)CC3)n(Cc3cccc4sccc34)c2c1 [Compound I-823]
19 | 25 to 50% | N/C(=N\O)c1ccc2cc(C(=O)O[C@H]3CC[C@H](N)CC3)n(Cc3cccc4ccccc34)c2c1 [Compound I-810, (1r,4r)-4-aminocyclohexyl 6-((Z)—N′-hydroxycarbamimidoyl)-1-(naphthalen-1-ylmethyl)-1H-indole-2-carboxylate]
20 | 75 to 100% | N=C(N)c1ccc2cc(C(=O)NC3CCNC[C@@H]3F)n(Cc3cccc4ccccc34)c2c1 (stereo partly shown) [Compound I-816]

Same assay, conditions: read-out: Mar-2 % inhibition at 1 uM

Row | SMILES | inhibition at 1 µM
21 | COC(=O)NCCOC(=O)c1cc2ccc(C(=N)NC(=O)Oc3ccccc3)cc2n1Cc1cc(Oc2ncccn2)cc2ccccc12 [Compound I-554] | 0 to 25%
22 | CN1CCC(NC(=O)c2cc3ccc(C(=N)NC(=O)Oc4ccccc4)cc3n2Cc2cc(Oc3ncccn3)cc3ccccc23)CC1 [Compound I-553] | 0 to 25%

— patent US12428415B2, “Matriptase 2 inhibitors and uses thereof” (Disc Medicine, Inc., priority 2018, dated 2025)
